Measured values from PubChem BioAssay AID493138 (Sanford-Burnham Center for Chemical Genomics, 2011).
Activity calls are given as the source filed them. How the calls were made is not given here.

biological target: Alkaline phosphatase, placental type (Homo sapiens) (UniProt P05187); test: PLAP enzyme inhibition by analogs, SAR follow-up, selectivity assay for human IAP inhibitor project, biochemical, human PLAP isozyme (AID 493138); settings: purified placental alkaline phosphatase, enzyme activity

SMILES	IC50
COc1cc(C=NN=C2SC(CC(=O)O)C(=O)N2c2ccc(O)cc2)ccc1O (stereo unspecified)	> 100 µM (inactive)
Cc1ccc(Cl)cc1Nc1nc(-c2ccc(O)c(O)c2)cs1	> 100 µM (inactive)
COc1ccc(C=NNC(=S)Nc2ccccc2[N+](=O)[O-])cc1O	> 100 µM (inactive)
O=C(O)CC1S/C(=N/N=C/c2ccco2)NC1=O (stereo unspecified)	> 100 µM (inactive)
Cc1cccc(Nc2nc(-c3ccc(O)c(O)c3)cs2)c1	> 100 µM (inactive)
Cc1ccc2nc(NNC(=O)c3ccc4c(c3)OCCO4)sc2c1	> 100 µM (inactive)
Cc1ccc2sc(NNC(=O)c3ccc4c(c3)OCCO4)nc2c1C	> 100 µM (inactive)
COc1ccc(-c2csc(Nc3cccc4ccccc34)n2)cc1	> 100 µM (inactive)
COC(=O)/C=C1/S/C(=N/NC(=O)c2ccc(Cl)cc2Cl)NC1=O	> 100 µM (inactive)
Cc1cccc(NC(=S)NNC(=O)c2ccc3c(c2)OCO3)c1	> 100 µM (inactive)
Cc1cccc(C)c1NC(=S)N/N=C/c1ccc(O)c(O)c1O	> 100 µM (inactive)
O=[N+]([O-])c1ccc(NC(=S)NCCC(c2ccccc2)c2ccccc2)cc1	> 100 µM (inactive)
COc1cccc(Nc2nc(-c3ccc(O)cc3)cs2)c1	> 100 µM (inactive)
Cc1ccc(-c2ccc(/C=N/N=C3\NC(=O)C(CC(=O)O)S3)o2)c([N+](=O)[O-])c1 (stereo unspecified)	> 100 µM (inactive)
COC(=O)/C=C1/S/C(=N/NC(=O)c2ccc(OC)cc2)NC1=O	> 100 µM (inactive)
N#CCCn1cc(/C=N/N=C2/NC(=O)C(CC(=O)O)S2)c(-c2ccc(F)cc2)n1 (stereo unspecified)	> 100 µM (inactive)
Cc1cccc(NC(=S)NN=Cc2ccc3c(c2)OCO3)c1	> 100 µM (inactive)
CCOc1cc(/C=N/N=C2\NC(=O)C(CC(=O)O)S2)ccc1O (stereo unspecified)	> 100 µM (inactive)
COc1ccc(Cl)cc1Nc1nc(-c2ccc(O)c(O)c2)cs1	> 100 µM (inactive)
COc1cc([N+](=O)[O-])ccc1NC(=S)NCCC(c1ccccc1)c1ccccc1	> 100 µM (inactive)
O=[N+]([O-])c1ccccc1NC(=S)NN=Cc1ccc(O)c(O)c1	8.24 µM
COC(=O)/C=C1/S/C(=N/NC(=O)c2ccccc2)NC1=O	> 100 µM (inactive)
NS(=O)(=O)c1ccc(Nc2nc(-c3ccc(O)cc3O)cs2)cc1	> 100 µM (inactive)
CN(C)S(=O)(=O)c1cccc(NC(=S)NN=Cc2ccc(O)c(O)c2O)c1	> 100 µM (inactive)
Cc1cccc(Nc2nc(-c3ccc(O)c(C(N)=O)c3)cs2)c1	> 100 µM (inactive)
COc1cc(C=NNC(=S)Nc2cccc(C(=O)O)c2)ccc1O	> 100 µM (inactive)

SMILES	IC50
CC(C)(C)c1ccc(/C=N/N=C2\NC(=O)C(CC(=O)O)S2)cc1 (stereo unspecified)	> 100 µM (inactive)
COC(=O)/C=C1/S/C(=N/N=Cc2ccc(N(C)C)cc2)NC1=O	> 100 µM (inactive)
CC(=NNC(=S)Nc1ccccc1)c1ccc2c(c1)OCO2	> 100 µM (inactive)
COc1cc(C(=O)NNC(=S)Nc2ccc(S(N)(=O)=O)cc2)cc(OC)c1OC	> 100 µM (inactive)
NS(=O)(=O)c1ccc(Nc2nc(-c3ccc(O)c(O)c3)cs2)cc1	33.8 µM
COC(=O)/C=C1/S/C(=N/NC(=O)c2ccccc2C)NC1=O	> 100 µM (inactive)
CCN(CC)S(=O)(=O)c1ccc(-c2csc(=Nc3cccc4ccccc34)n2C)cc1	> 100 µM (inactive)
COc1ccc(-c2csc(Nc3cccc4ccccc34)n2)cc1F	> 100 µM (inactive)
O=[N+]([O-])c1ccccc1NC(=S)N/N=C/c1ccc(O)c(O)c1O	> 100 µM (inactive)
Oc1ccc(Nc2nc(-c3ccc(O)c(O)c3)cs2)cc1	> 100 µM (inactive)
Cc1ccc(Nc2nc(-c3ccc(O)cc3O)cs2)cc1F	> 100 µM (inactive)
Oc1ccc(-c2csc(Nc3ccc(F)cc3)n2)cc1O	> 100 µM (inactive)
Cc1cc(=O)oc2cc(NC(=S)NCCC(c3ccccc3)c3ccccc3)ccc12	> 100 µM (inactive)
O=S(=O)(Nc1ncccn1)c1ccc(NC(=S)NCCC(c2ccccc2)c2ccccc2)cc1	> 100 µM (inactive)
COC(=O)/C=C1\S/C(=N/N=C/CC(=O)OC)NC1=O	> 100 µM (inactive)
COC(=O)C/C=N/N=C1\NC(=O)/C(=C/C(=O)O)S1	> 100 µM (inactive)
Cn1c(=S)n(N=Cc2ccc3c(c2)OCO3)c2ccccc21	> 100 µM (inactive)
COc1ccc(NC(=S)NCCC(c2ccccc2)c2ccccc2)cc1	> 100 µM (inactive)
COc1ccc(/C=N/N=C2/NC(=O)C(CC(=O)O)S2)cc1OC (stereo unspecified)	> 100 µM (inactive)
COc1ccc(C=Nn2c(=S)n(C)c3ccccc32)cc1OC	> 100 µM (inactive)
Cc1c(Cl)cccc1Nc1nc(-c2ccc(O)c(O)c2)cs1	> 100 µM (inactive)
Oc1ccc(-c2csc(Nc3ccccc3)n2)c(O)c1	> 100 µM (inactive)
Cc1ccc(Nc2nc(-c3ccc(O)cc3O)cs2)cc1	> 100 µM (inactive)
Cc1ccc(Nc2nc(-c3ccc(O)c(O)c3)cs2)cc1	> 100 µM (inactive)
CCOc1cc(C=N/N=C2/NC(=O)C(CC(=O)O)S2)ccc1OCc1ccccc1Cl (stereo unspecified)	> 100 µM (inactive)
COc1cc(/C=N/N=C2\NC(=O)C(CC(=O)O)S2)cc(OC)c1OC (stereo unspecified)	> 100 µM (inactive)

SMILES	IC50
COc1cc(C=NNC(=S)Nc2cccc(S(=O)(=O)N(C)C)c2)cc(OC)c1O	> 100 µM (inactive)
Oc1ccc(-c2csc(Nc3cccc4ccccc34)n2)cc1O	> 100 µM (inactive)
CCc1ccccc1Nc1nc(-c2ccc(O)c(O)c2)cs1	> 100 µM (inactive)
COc1ccc(/C=N/N=C2\NC(=O)C(CC(=O)O)S2)c(OC)c1 (stereo unspecified)	> 100 µM (inactive)
COc1ccc(C=NN=C2SC(CC(=O)O)C(=O)N2c2ccc(O)cc2)cc1 (stereo unspecified)	> 100 µM (inactive)
COc1cc(C=NNC(=S)Nc2cccc(S(=O)(=O)N(C)C)c2)ccc1O	> 100 µM (inactive)
COc1cc([N+](=O)[O-])ccc1NC(=S)NNC(=O)c1ccc2c(c1)OCO2	> 100 µM (inactive)
COC(=O)/C=C1\SC(N=Nc2c(O)[nH]c3ccccc23)=NC1=O	> 100 µM (inactive)
Cc1ccc(Nc2nc(-c3ccc(O)cc3O)cs2)cc1C	> 100 µM (inactive)
O=S(=O)(c1ccc(NC(=S)N/N=C/c2ccc(O)c(O)c2O)cc1)N1CCOCC1	> 100 µM (inactive)
S=C(NCCC(c1ccccc1)c1ccccc1)Nc1ccc(Cl)cc1Cl	> 100 µM (inactive)
FC(F)(F)c1cccc(NC(=S)NCCC(c2ccccc2)c2ccccc2)c1	> 100 µM (inactive)
CCOc1ccc(Nc2nc(-c3ccc(O)c(O)c3)cs2)cc1	> 100 µM (inactive)
Cc1cccc2sc(NNC(=O)c3ccc4c(c3)OCCO4)nc12	> 100 µM (inactive)
O=S(=O)(c1ccc(NC(=S)N/N=C/c2ccc(O)c(O)c2)cc1)N1CCOCC1	> 100 µM (inactive)
Cc1ccc(Nc2nc(-c3ccc(O)c(C(N)=O)c3)cs2)cc1	> 100 µM (inactive)
COc1cc(/C=N/N=C2/SCC(=O)N2c2ccc(O)cc2)ccc1O	> 100 µM (inactive)
Cc1ccc(C)c(Nc2nc(-c3ccc(O)cc3O)cs2)c1	> 100 µM (inactive)
COC(=O)/C=C1/S/C(=N/NC(=O)c2ccccc2OC)NC1=O	> 100 µM (inactive)
COc1ccc(C(=O)NNC(=S)NC2CCCCC2)cc1OC	> 100 µM (inactive)
CCOc1cc(C=NNC(=S)NC2CCCCC2)ccc1O	> 100 µM (inactive)
COC(=O)/C=C1\S/C(=N/N=C/c2ccc(Cl)cc2)NC1=O	> 100 µM (inactive)
Cc1cc(C)cc(Nc2nc(-c3ccc(O)cc3O)cs2)c1	> 100 µM (inactive)
Cc1ccc(Nc2nc(-c3ccc(O)c(O)c3)cs2)cc1F	> 100 µM (inactive)
